Data on 65 compounds can be found in PubChem BioAssay AID434951 (Broad Institute, 2010).

Calls of active or inactive are those of the source.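 The calls were made as follows: active = a fitted half-maximal concentration EC50 for the rise in nuclear signal no higher than ten times the top dose tested; inconclusive = flat fit with activity between 30% and 70%, or unusable fit; inactive = EC50 beyond ten times the top dose.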

Chain of Hypoxia-inducible factor 1-alpha (Homo sapiens) (Q16665 whole entry, looked up): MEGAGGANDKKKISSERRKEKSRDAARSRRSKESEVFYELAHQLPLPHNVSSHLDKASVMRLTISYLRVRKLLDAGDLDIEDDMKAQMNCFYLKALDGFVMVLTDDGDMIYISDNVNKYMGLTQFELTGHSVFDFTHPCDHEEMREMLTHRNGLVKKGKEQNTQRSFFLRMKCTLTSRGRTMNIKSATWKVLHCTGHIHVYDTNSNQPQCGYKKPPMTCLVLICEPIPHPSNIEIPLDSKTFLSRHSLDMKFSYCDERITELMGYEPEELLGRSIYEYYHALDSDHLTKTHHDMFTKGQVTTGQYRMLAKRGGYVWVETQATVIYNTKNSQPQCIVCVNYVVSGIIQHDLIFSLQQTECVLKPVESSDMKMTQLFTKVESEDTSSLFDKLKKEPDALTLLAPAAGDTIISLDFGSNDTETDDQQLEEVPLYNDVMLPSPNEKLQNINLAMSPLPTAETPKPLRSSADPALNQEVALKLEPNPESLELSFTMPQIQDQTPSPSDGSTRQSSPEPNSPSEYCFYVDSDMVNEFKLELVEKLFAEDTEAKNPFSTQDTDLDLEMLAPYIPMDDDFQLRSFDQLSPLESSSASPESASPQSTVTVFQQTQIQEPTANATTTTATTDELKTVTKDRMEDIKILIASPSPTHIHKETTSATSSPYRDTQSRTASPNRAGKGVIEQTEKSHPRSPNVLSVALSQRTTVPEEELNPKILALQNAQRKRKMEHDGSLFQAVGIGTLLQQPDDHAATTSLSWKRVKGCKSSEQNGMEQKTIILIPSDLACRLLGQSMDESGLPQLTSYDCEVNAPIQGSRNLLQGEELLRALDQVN

This assay concerns the target Hypoxia-inducible factor 1-alpha (Homo sapiens) (UniProt Q16665). Kind of assay: activators of HIF1alpha nuclear accumulation, confirmation, imaging, fluorescence, U2OS GFP-HIF1alpha (AID 434951). To be noted: U2OS GFP-HIF1alpha nuclear intensity, high-content imaging.
`COc1ccc(-c2nc(C#N)c(N3CCN(C(=O)c4ccco4)CC3)o2)cc1OC`: the EC50 is > 35 µM (inactive).

As to `O=C(CCN1C(=O)S/C(=C\c2ccc(F)cc2)C1=O)Nc1ccc(C(=O)O)c(O)c1`, the EC50 was > 35 µM (inactive).

As to `O=C(NC(=S)Nc1ccccn1)c1cc(-c2ccccc2)nc2ccccc12`, the EC50 was > 35 µM (inactive).

On to `CCCCc1c(C)nc(N)[nH]c1=O`, for which the EC50 was > 35 µM (inactive).

Take `CCCCC(=O)NC(c1cccs1)c1cc(Cl)c2cccnc2c1O` (stereo not given): the EC50 was > 35 µM (inactive).

With `S=C(Nc1ccc2cn[nH]c2c1)Nc1ccccc1Cl`, the EC50 was > 35 µM (inactive).

With `Cc1cccnc1Nc1nc(-c2ccccn2)cs1`, the EC50 was 3.83 µM.

For `CCOC(=O)C1CCCN(C(=O)c2ccc3oc(CCc4ccccc4)nc3c2)C1` (stereo not given), the EC50 is > 35 µM (inactive).

On to `C/C(=N\Nc1nc2ccccc2[nH]1)c1ccccn1`, for which the EC50 was 1.8 µM.

`CC(C)c1cc(-c2cc(C(=O)NCc3ccccc3)on2)nc(NC2CCCC2)n1`: the EC50 is > 35 µM (inactive).

With `Cc1ccc(S(=O)(=O)Nc2cc(-c3ccc(Cl)cc3)nn2C)cc1`, the EC50 was > 35 µM (inactive).

Take `O=C(c1ccc(F)cc1)N(Cc1cccs1)C1CCS(=O)(=O)C1` (stereo not given): the EC50 was > 35 µM (inactive).

Turning to `CC1=NN2C(=N)/C(=C\c3cc(C)n(Cc4ccccc4)c3C)C(=O)N=C2S1`, the EC50 was > 35 µM (inactive).

On to `O=C(NC1CCCC1)c1cc(-c2ccccc2)on1`, for which the EC50 is 16.3 µM.

On to `Cc1ccc(C(=O)NC(=S)NNS(=O)(=O)c2ccc(C)cc2)cc1`, for which the EC50 was > 35 µM (inactive).

With `Oc1c(N=Nc2ccccn2)ccc2ccccc12`, the EC50 was 3.98 µM.

On to `C(/CCc1ccccc1)=N\Nc1nc2ccccc2[nH]1`, for which the EC50 was 35.9 µM.

As for `CC1CCN(S(=O)(=O)c2ccc3c4c2CC(=O)N4CC(C)S3)CC1` (stereo not given), the EC50 is > 35 µM (inactive).

For the compound `Cc1c(/C=N/NC(N)=O)c2ccccn2c1C(=O)c1ccncc1`, the EC50 was > 35 µM (inactive).

`Cc1ccc(NC(=O)CSc2ncc3ccccn23)cc1`: the EC50 was > 35 µM (inactive).

`Cc1ccc(C)c(CNS(=O)(=O)c2ccc3c(c2)C(C)(C)C(=O)N3C)c1`: the EC50 is > 35 µM (inactive).

In the case of `CCCN(CCC)C(C)C(=O)NCC1(c2ccccc2)CCCC1` (stereo not given), the EC50 was > 35 µM (inactive).

For `COc1ccc(CCNC(=O)CSc2nc(-c3ccc(OC)c(OC)c3)ccc2C#N)cc1`, the EC50 is > 35 µM (inactive).

As to `Nc1nc(-c2ccccn2)nc(N)c1Cc1ccc(Cl)cc1Cl`, the EC50 was 6.12 µM.

As to `O=C(N/N=C/c1c(O)ccc2ccccc12)c1cccc(C(F)(F)F)c1`, the EC50 is 8.56 µM.

With `c1ccc(Cc2nnc(-c3ccccc3)o2)cc1`, the EC50 was 17.7 µM.

With `COc1ccc(-c2cc(C(F)(F)F)nc(S(=O)(=O)CCCC(=O)Nc3cc(C)on3)n2)cc1OC`, the EC50 was > 35 µM (inactive).

As to `C/C(=N\O)C(=O)Nc1ccccc1`, the EC50 is > 35 µM (inactive).

For `Oc1cccc(C(Nc2nccs2)c2ccc3cccnc3c2O)c1` (stereo not given), the EC50 is 6.93 µM.

Consider `CC1CC(C)CN(S(=O)(=O)c2ccc3c(c2)oc(=O)n3CC(=O)NCCCOC(C)C)C1` (stereo not given), for which the EC50 was > 35 µM (inactive).

Consider `Cc1ccc(-c2nc(CS(=O)(=O)CC(=O)NC3CCC(C)CC3)c(C)o2)cc1` (stereo not given), for which the EC50 is > 35 µM (inactive).

As for `CC(NC(=O)c1cc2c(s1)CS(=O)(=O)C2)c1ccccc1` (stereo not given), the EC50 was > 35 µM (inactive).

With `Cc1ccc(Cl)cc1N1CCN(CC(O)COCc2ccco2)CC1` (stereo not given), the EC50 is > 35 µM (inactive).

Regarding `CC1CN(S(=O)(=O)c2cccc(C(=O)N(CCc3ccccc3)Cc3ccccc3)c2)CC(C)O1` (stereo not given), the EC50 was > 35 µM (inactive).

For the compound `C=C(C)CNC(=O)c1ccc2nc(Cc3ccc(OC)cc3)oc2c1`, the EC50 was > 35 µM (inactive).

Take `CC1(C)Cc2c(C#N)c(SCCC#N)nc(N3CCOCC3)c2CO1`: the EC50 was > 35 µM (inactive).

Take `CC(=O)NCCC(=O)Nc1cc(S(=O)(=O)N2CCOCC2)ccc1N1CCOCC1`: the EC50 was > 35 µM (inactive).

In the case of `COc1ccc(-c2csc(NNC3=NCCCCC3)n2)cc1`, the EC50 was 30.1 µM.

As for `CN(Cc1ccccc1)C(=O)CC(=O)N(C)Cc1ccccc1`, the EC50 was > 35 µM (inactive).

`COc1ccc(/C=N/NC(=O)c2nc(-c3ccccc3)n(-c3ccccc3)n2)c(O)c1`: the EC50 is 25.4 µM.

Take `Cc1cc(NC(=O)CCCS(=O)(=O)c2nc(-c3cccs3)cc(C(F)(F)F)n2)no1`: the EC50 is > 35 µM (inactive).

As to `Cc1cc(NC(=O)CSc2nc3c(c(=O)n2-c2ccc(Cl)cc2)SCC3)no1`, the EC50 is > 35 µM (inactive).

Take `CCN(CC)c1ccc(/C=N/NC(=O)c2cccc(S(=O)(=O)Nc3ccccc3OC)c2)c(O)c1`: the EC50 is 0.838 µM.

Regarding `O=C(N/N=C/c1sc2ccccc2c1O)c1cccc2ccccc12`, the EC50 is 31.4 µM.

For `COc1ccccc1/C=C/C(=O)c1ccccc1`, the EC50 is > 35 µM (inactive).

For the compound `Cn1ncc(Br)c1C(=O)OCC(=O)Nc1nc(-c2ccccc2)cs1`, the EC50 is > 35 µM (inactive).

For the compound `Cc1cc([N+](=O)[O-])nn1Cc1ccc(C(=O)N/N=C/c2ccc(O)cc2O)cc1`, the EC50 is 22.4 µM.

As to `O=[N+]([O-])c1cc(Cl)cc(/C=N\Nc2ccccn2)c1O`, the EC50 is 1.65 µM.

On to `Cc1ccccc1NC(=O)CN(C)S(=O)(=O)c1ccc(-c2ccc(=O)[nH]n2)s1`, for which the EC50 is > 35 µM (inactive).

Turning to `CCOC(=O)Cc1nn(CC)c(=O)c2ccccc12`, the EC50 is > 35 µM (inactive).

Turning to `Cc1ccc(CSc2nnc(CCCCCNC(=O)OC(C)(C)C)o2)cc1`, the EC50 was > 35 µM (inactive).

Regarding `COc1ccc(/C=N/Nc2ncnc3sc4c(c23)CCCC4)cc1OC`, the EC50 was > 35 µM (inactive).

In the case of `CCN(CC)CCn1c2ccccc2c2cnc(N)c(C#N)c21`, the EC50 is > 35 µM (inactive).

As for `O=C(N/N=C/c1cc(Br)ccc1O)c1ccncc1`, the EC50 was > 35 µM (inactive).

Turning to `CC(=O)c1ccc(N2C(=NC(=O)COc3ccccc3)SC3CS(=O)(=O)CC32)cc1` (stereo not given), the EC50 is > 35 µM (inactive).

Turning to `O=C(Nc1ccc(Cl)cc1)NN1CC(=O)N(c2cccc(C(F)(F)F)c2)CC1=O`, the EC50 was > 35 µM (inactive).

Take `Oc1ccc(CN2CCc3ccccc3C2)c2cccnc12`: the EC50 was 2.4 µM.

Regarding `CCSc1nc(NCCN(C)C)c2c3c(sc2n1)COC(C)(CC)C3` (stereo not given), the EC50 was > 35 µM (inactive).

Consider `O=C(CCCCCN1C(=O)c2ccccc2C1=O)Nc1ccc2c(c1)OCCO2`, for which the EC50 is > 35 µM (inactive).

Regarding `O=C(NCCCN1CCN(c2ccccc2F)CC1)Nc1ccccc1[N+](=O)[O-]`, the EC50 is > 35 µM (inactive).

Turning to `O=C(Nc1ccccc1O)c1ccc(NC(=O)C2CC2)cc1`, the EC50 is 10.8 µM.

For `O=C(c1ccc(Cl)cc1Cl)N1CCN(c2ccc(N3CCOCC3)nn2)CC1`, the EC50 was > 35 µM (inactive).

On to `COc1ccc(OC)c(C2=Nn3c(nnc3-c3cc(C)[nH]n3)SC2)c1`, for which the EC50 was > 35 µM (inactive).

`CC(=O)Nc1ccc(S(=O)(=O)Nc2ccc(S(=O)(=O)Nc3nccs3)cc2)cc1`: the EC50 is > 35 µM (inactive).

For the compound `Oc1ccc2ccccc2c1N=Nc1nccs1`, the EC50 was 5.74 µM.
